Test results published in patent US5693642A, “Piperazine derivatives as 5-HT1A ligands” (John Wyeth & Brother Ltd., priority 1993, dated 1997).
pIC50: −log10 of the molar value.

target: T1, 5-HT1A receptor (Rattus norvegicus, UniProt P19327); test: 5-HT1A receptor binding activity in rat hippocampal membrane homogenate
T1 construct: rat hippocampal membrane homogenate; from tissue; host or cells: rat hippocampal membrane homogenate
T1 sequence (P19327 1-422): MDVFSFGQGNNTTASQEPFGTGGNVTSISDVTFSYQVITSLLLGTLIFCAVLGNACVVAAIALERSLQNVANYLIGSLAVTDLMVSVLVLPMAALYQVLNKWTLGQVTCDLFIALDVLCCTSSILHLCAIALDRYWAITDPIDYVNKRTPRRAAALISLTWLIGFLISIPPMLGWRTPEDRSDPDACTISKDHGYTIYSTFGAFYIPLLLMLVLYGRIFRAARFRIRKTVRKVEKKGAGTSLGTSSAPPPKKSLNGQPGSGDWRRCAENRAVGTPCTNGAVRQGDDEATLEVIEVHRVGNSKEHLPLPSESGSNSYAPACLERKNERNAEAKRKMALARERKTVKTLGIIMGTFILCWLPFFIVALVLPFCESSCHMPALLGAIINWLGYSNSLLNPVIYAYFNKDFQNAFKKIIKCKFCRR
Experimental: The compounds of the invention were tested for 5-HT1A receptor binding activity in rat hippocampal membrane homogenate by the method of B. S. Alexander and M. D. Wood, J Pharm Pharmacol, 1988, 40, 888-891.

**Q.** With COc1ccccc1N1CCN(C[C@H](c2ccccn2)[C@H](O)C2CCCCC2)CC1 (relative stereo) [Example 1a, R*, R*-1-(2Methoxyphenyl)-4-[(2-propan-(2-pyridinyl)-3-cyclohexyl)-3-ol]piperazine] as the molecule, how does the pIC50 read?
**A.** 8.40

**Q.** How did the pIC50 turn out when COc1ccccc1N1CCN(C[C@H](c2ccccn2)[C@@H](O)C2CCCCC2)CC1 (relative stereo) [Example 1b, R*, S*-1-(2-Methoxyphenyl)-4-[(2-propan-(2-pyridinyl)-3-cyclohexyl)-3-ol]piperazine] was run?
**A.** 8.37

**Q.** How did the pIC50 turn out when COc1ccccc1N1CCN(CC[C@H](c2ccccn2)[C@H](O)C2CCCCC2)CC1 (relative stereo) [Example 2a, R*,R*-1-(2-Methoxyphenyl)-4-[3-butan-(2-pyridinyl)-4-cyclohexyl)-4-ol]piperazine] was run?
**A.** 8.70

**Q.** With COc1ccccc1N1CCN(CC[C@H](c2ccccn2)[C@@H](O)C2CCCCC2)CC1 (relative stereo) [Example 2b, R*,S*-1-(2-Methoxyphenyl)-4-[3-butan-(2-pyridinyl)-4-cyclohexyl)-4-ol]piperazine] as the molecule, how does the pIC50 read?
**A.** 8.74

**Q.** How did the pIC50 turn out when COc1ccccc1N1CCN(CCC(c2ccccn2)[S+]([O-])C2CCCCC2)CC1 (single isomer, unassigned) [Example 7, 1-(2-Methoxyphenyl)-4-[3-(cyclohexylsulphoxy)-3-(2-pyridinyl)propyl]piperazine] was run?
**A.** 7.82

**Q.** COc1ccccc1N1CCN(CCC(C(=O)C2CCCCC2)c2ccccn2)CC1 (centres unmarked) [Example 3] was tested. Which pIC50 did it give?
**A.** 8.59

**Q.** COc1ccccc1N1CCN(CCC(CC2CCCCC2)c2ccccn2)CC1 (centres unmarked) [Example 4] was tested. Which pIC50 did it give?
**A.** 8.80

**Q.** COc1ccccc1N1CCN(CCC(SC2CCCCC2)c2ccccn2)CC1 (centres unmarked) [Example 6, 1-(2-Methoxyphenyl)-4-[3-(cyclohexylthio)-3-(2-pyridinyl)propyl]piperazine] was tested. Which pIC50 did it give?
**A.** 8.37
